Data reported in paper PMC10931776, “Modes of Interactions with DNA/HSA Biomolecules and Comparative Cytotoxic Studies of Newly Synthesized Mononuclear Zinc(II) and Heteronuclear Platinum(II)/Zinc(II) Complexes toward Colorectal Cancer Cells” (International Journal of Molecular Sciences, 2024).

Columns and labels:
[1] = biological target: T1, Human serum albumin (HSA) (Homo sapiens, UniProt P02768); test: HSA fluorescence quenching; type: binding; settings: HSA 2 µM, complex 0–30 µM, PBS pH 7.4, room temperature, λex 295 nm
T1 construct: reagents in general came from Sigma-Aldrich, Acros Organics or Merck
Text: Human serum albumin (HSA) produces a fluorescence signal when excited at 295 nm due to the tryptophan residues. This characteristic makes fluorescence spectroscopy an effective tool for studying complex interactions involving HSA. If the examined complex interacts with HSA, an increasing concentration of the complex will lead to a decrease in fluorescence, as shown in Figure 4 and Figures S14–S17. […] The Stern–Volmer equation (Equation (S2)) was used to determine the Stern–Volmer constant, Ksv, for the HSA interactions.
The binding affinity of the complexes C1–C5 to HSA has been determined through fluorescence quenching experiments. The measurements were conducted in a 0.01 M PBS with a pH of 7.4 at room temperature. The HSA concentration was kept constant at 2 μM while the concentration of complexes C1–C5 was increased from 0 to 30 μM, resulting in a significant decrease in emissions at 352 nm. Before each measurement, the system was shaken at room temperature. The fluorescence intensity was measured with the wavelength of excitation at 295 nm and recorded in the 300 to 500 nm range. The width of the excitation and emission slits (10 nm) and scan rate were maintained at a constant rate. The Stern–Volmer constants, Ksv, were determined by Equation (2).

[2] = tested on: mouse colorectal carcinoma (CT26); test: MTT cytotoxicity assay, CT26; type: cell-based; settings: 48 h
Method: The in vitro cytotoxicity of newly synthesized mono- and heteronuclear platinum(II)/and zinc(II) complexes, featuring a 4,4′,4″-tri-tert-butyl-2,2′:6′,2″-terpyridine ligand (designated as C1–C5), was assessed using MTT assay procedures. This evaluation targeted various cell lines: mouse colorectal carcinoma (CT26), human colorectal carcinoma (HCT116 and SW480), and non-cancerous mouse mesenchymal stem cells (mMSC). These cell lines were exposed to synthesized complexes for 48 h, with concentrations ranging from 1.17 to 150 μM.
In our study, various cell lines were cultured, including mouse colorectal carcinoma (CT26), human colorectal carcinoma (HCT116 and SW480) obtained from ATCC, USA, and mouse mesenchymal stem cells (mMSC, Gibco), New York, NY, USA). These cell lines were consistently maintained in complete Dulbecco’s Modified Eagle Medium (DMEM) supplemented with 10% fetal bovine serum (FBS) (Sigma Aldrich, St. Louis, MO, USA), 100 IU/mL penicillin, and 100 μg/mL streptomycin antibiotics (Invitrogen, Carlsbad, CA, USA). The cultures were incubated at 37 °C in a humidified atmosphere of 5% carbon dioxide (CO2). […] The viability and count of the cells were determined using Trypan blue staining, ensuring the accuracy and reliability of the experimental outcomes.
The cytotoxic effects of five newly synthesized complexes, alongside cisplatin, were assessed through the MTT assay method, in line with previously established protocols. During the exponential growth phase, cells were collected from culture flasks, counted, and then seeded in 96-well culture plates at a density of 5·10^3 cells per well. Subsequent treatment involved exposing these cells to varying concentrations of the newly synthesized complexes and cisplatin (ranging from 1.17 to 150 μM) for a duration of 48 h, with fresh complete medium serving as the control. The results were quantified relative to the control (untreated cells), providing a comparative measure of cytotoxicity. Additionally, IC50 values, representing the concentration required to inhibit 50% of the cell viability, were calculated using Microsoft Office Excel 2010. Lastly, the data were presented as percentages of viable cells in accordance with the methodology outlined in the referenced study, facilitating a comprehensive understanding of the anticancer potential of these compounds.

CT26 cells [3] = test: Annexin V FITC / Propidium Iodide apoptosis flow cytometry; type: cell-based, mouse; settings: CT26, 24 h treatment
Method: The capacity of the C1 complex to induce apoptotic death in cancer cells was assessed using flow cytometric analysis. This analysis involved treating cells with the C1 complex and subsequently staining them with Annexin V FITC and Propidium Iodide. […] In a similar vein, in a related context, NCI-H460 cancer cells, which are a line of human large-cell lung carcinoma cells, were subjected to treatment with binuclear platinum(II) complexes. These complexes feature 4′-substituted-2,2′:6′,2″-terpyridine ligands and were administered for a duration of 24 h. Following this treatment, there was a significant increase in the proportion of apoptotic cells, correlating strongly with exposure to these specific ligands.
The evaluation of apoptosis in cells subjected to treatment was conducted employing the Annexin V and Propidium Iodide double staining assay in accordance with the methodology outlined in prior studies. This approach enabled the determination of the percentage of apoptotic cells. In further experiments, cells were fixed and permeabilized using a permeabilization buffer provided by BD Bioscience, Heidelberg, Germany. […] The analysis of these treated cells was carried out using a FACS Calibur flow cytometer (BD Biosciences, San Jose, CA, USA) and the resulting data were meticulously analyzed with FlowJo software (v10.8.2). […]

CT26 cells [4] = test: Cell cycle analysis by flow cytometry; type: cell-based, mouse; settings: CT26, 24 h treatment, vs untreated
Method: The study of cell cycle arrest in CT26 carcinoma cells treated with the potent compound C1 was conducted to elucidate the potential cellular mechanisms underlying its anticancer effect. For this purpose, CT26 cells were subjected to 24 h treatment with the C1 complex. […] This arrest is likely attributable to molecular alterations within the cancer cells post-treatment. […] This reduction in the S phase, where DNA replication occurs, further indicates the efficacy of the C1 complex in hindering cell cycle progression. […] The induction of cell cycle arrest by the C1 compound potentially curtails the growth and dissemination of carcinoma cells, underscoring its efficacy as a promising anticancer agent.
Our research progressed to explore the potential effects of the newly synthesized C1 complex on the cell cycle dynamics of CT26 tumor cells. […] Each sample tube was then treated with a specific antibody targeting Ki67 (eBioscience, San Diego, CA, USA)/1 μL of Vybrant® DyeCycleTM Ruby stain (Thermo Fisher Scientific Inc., Waltham, MA, USAand subsequently analyzed using a FACS Calibur flow cytometer (BD Biosciences, San Jose, CA, USA). A minimum of 15,000 events per sample were examined. Data analysis was conducted using the FlowJo vX.0.7 software, allowing for a detailed assessment of the cell cycle phases and any impact induced by the C1 complex.

T1 sequence (P02768 25-609): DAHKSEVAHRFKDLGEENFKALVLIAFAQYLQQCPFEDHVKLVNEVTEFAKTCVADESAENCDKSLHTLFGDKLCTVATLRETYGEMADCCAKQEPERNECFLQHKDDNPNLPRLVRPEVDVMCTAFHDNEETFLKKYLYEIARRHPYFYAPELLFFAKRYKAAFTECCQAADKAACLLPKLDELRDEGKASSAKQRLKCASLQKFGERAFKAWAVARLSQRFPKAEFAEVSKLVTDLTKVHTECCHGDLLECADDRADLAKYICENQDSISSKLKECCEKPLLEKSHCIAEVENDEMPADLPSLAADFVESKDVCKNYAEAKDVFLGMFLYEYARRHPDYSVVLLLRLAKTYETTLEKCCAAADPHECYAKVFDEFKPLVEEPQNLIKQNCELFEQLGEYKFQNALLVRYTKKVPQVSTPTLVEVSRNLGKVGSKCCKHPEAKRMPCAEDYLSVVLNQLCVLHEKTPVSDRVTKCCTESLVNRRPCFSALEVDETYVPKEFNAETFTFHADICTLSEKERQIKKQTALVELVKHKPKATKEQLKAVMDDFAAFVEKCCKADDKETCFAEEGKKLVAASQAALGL

[ZnCl2(terpy^t^Bu)] [C1]
Stern–Volmer constant Ksv, HSA [1]: 1.8 ± 0.1 10^4 M^–1
Selectivity Index (IC50 mMSC/IC50), CT26 [2]: 1.3
IC50 ([2]; read-out: IC50 ± SEM, CT26): 44.7 ± 58.7 µM
Induction of apoptotic cell death (CT26 cells [3]; Annexin V FITC/PI): entered both early and late stages of apoptosis
Quadrant number upper left of PI / Annexin V plot (necrotic, AnnV−PI+) (CT26 cells [3]; representative FACS plot, untreated 1.55): underwent necrosis
Cell cycle distribution, G0/G1 phase (CT26 cells [4]): G0/G1 phase arrest
Cell cycle distribution, synthesis (S) phase (CT26 cells [4]): notable decrease
